Measured values taken from patent US20250152569A1, “TREATMENT OF CELL PROLIFERATION-ASSOCIATED CONDITIONS USING A COMBINATION OF A CLB-B INHIBITOR AND AN ADDITIONAL THERAPEUTIC AGENT” (HOTSPOT THERAPEUTICS, INC., priority 2022, published 2025).

Tests used:
Set-up in all cases: species or system female BALB/c mice
[1] = system: subcutaneous murine colorectal cancer model CT26.WT; assay: In vivo efficacy study, subcutaneous murine colorectal cancer model CT26.WT (Example 4); details: Day 16
Experimental: (§1) The objective of this study was to evaluate preclinically the in vivo therapeutic efficacy of HotSpot Therapeutics's Test Articles in the treatment of the subcutaneous murine Colorectal model CT26.WT in female BALB/c mice. Compound 29 test particles were delivered via PO. Compound 29 was assessed at various dose levels in combination with Oxaliplatin or Cabozantinib. Tumor volumes and body weight were measured three times per week after the initiation of treatment.
The CT26.WT tumor cells were maintained in vitro with RPMI-1640 medium supplemented with 10% fetal bovine serum at 37° C. in an atmosphere of 5% CO2 in air. The cells in exponential growth phase were harvested and quantitated by cell counter before tumor inoculation.
Each mouse was inoculated subcutaneously it the right lower flank region with 5×10^5 tumor cells in 0.1 ml of PBS mixed with Matrigel (1:1) for tumor development.
The randomization started when the mean tumor size reached approximately 86.42 mm^3. 60 mice were enrolled in the study. All animals were randomly allocated to 6 study groups, 10 mice in each group. Randomization was performed based on “Matched distribution” method (StudyDirector™ software, version 3.1.399.19)
The date of randomization was denoted as day 0.
The treatment was initiated on the same day of randomization (day 0) per study design.
(§2) After tumor cells inoculation, the animals were checked daily for morbidity and mortality. During routine monitoring, the animals were checked for any effects of tumor growth and treatments on behavior such as mobility, food and water consumption, body weight gain/loss (Body weights were measured twice per week after randomization), eye/hair matting and any other abnormalities. Mortality and observed clinical signs were recorded for individual animals in detail.
Tumor volumes were measured twice per week after randomization in two dimensions using a caliper, and the volume was expressed in mm^3 using the formula: “V=(L×W×W)/2, where V was tumor volume, L was tumor length (the longest tumor dimension) and W was tumor width (the longest tumor dimension perpendicular to L). Dosing as well as tumor and body weight measurements were conducted in a Laminar Flow Cabinet.
The body weights and tumor volumes were measured by using StudyDirector™ software (version 3.1.399.19).
For Group 01 and Group 03 were terminated when the mean tumor volume of the vehicle control group reaches 2000 mm^3 on day 16.
For Group 02, Group 04, Group 05 and Group 06 were performed for 3 weeks. The study was terminated on day 21 (Sep. 21, 2022).
To compare tumor volumes of different groups at a pre-specified day, we first used Bartlett's test to check the assumption of homogeneity of variance across all groups. When the p-value of Bartlett's test was >=0.05, we ran one-way ANOVA to test overall equality of means across all groups. If the p-value of the one-way ANOVA was <0.05, we further performed post hoc testing by running Tukey's HSD (honest significant difference) tests for all pairwise comparisons, and Dunnett's tests for comparing each treatment group with the vehicle group. When the p-value of Bartlett's test was <0.05, we ran Kruskal-Wallis test to test overall equality of medians among all groups. If the p-value the Kruskal-Wallis test was <0.05, we further performed post hoc testing by running Conover's non-parametric test for all pairwise comparisons or for comparing each treatment group with the vehicle group, both with single-step p-value adjustment.
In addition, we performed pairwise comparisons without multiple comparison correction and report nominal/uncorrected p-values directly from Welch's t-test or Mann-Whitney U test at each time point. Specifically, we first used Shapiro Wilk test to check the assumption of normal distribution for each group. When p-values of Shapiro Wilk tests of both groups in a pair are >0.05, we ran Welch's t-test, otherwise we ran Mann-Whitney U test, to obtain nominal p-values. […]

[2] = system: subcutaneous murine colorectal cancer model CT26.WT; assay: In vivo efficacy study, CT26.WT model, combination with ALT-803 (Example 6); details: Compound 29 30 mg/kg p.o. BID in combination with ALT-803 0.2 mg/kg i.p. QW; FIG. 5A, 5B
Experimental: as §1, with “of” for “of HotSpot Therapeutics's”, “ALT-803.” for “Oxaliplatin or Cabozantinib.”
The CT26.WT tumor cells will be maintained in vitro with RPMI-1640 medium supplemented with 10% fetal bovine serum at 37° C. in an atmosphere of 5% CO2 in air. The cells in exponential growth phase will be harvested and quantitated by cell counter before tumor inoculation. […]
as §2, with “will be” for “were”, “detail. […]” for “detail.”
(§3) The body weights and tumor volumes will be measured by using StudyDirector™ software (version 3.1.399.19). […]

[3] = system: subcutaneous murine colorectal cancer model CT26.WT; assay: In vivo efficacy study, CT26.WT model, combination with Doxorubicin, Gemcitabine or Paclitaxel (Example 5)
Experimental: as §1, with “of” for “of HotSpot Therapeutics's”, “Doxorubicin, Gemcitabine” for “Oxaliplatin”, “Paclitaxel.” for “Cabozantinib.”
The CT26.WT tumor cells will be maintained in vitro with RPMI-1640 medium supplemented with 10% fetal bovine serum at 37° C. in an atmosphere of 5% CO2 in air. The cells in exponential growth phase will be harvested and quantitated by cell counter before tumor inoculation.
Each ach mouse will be inoculated subcutaneously in the right lower flank region with CT26 tumor cells (5×10^5) in 0.1 ml of PBS for tumor development.
The randomization will start when the mean tumor size reaches approximately 80-100 mm^3. […] Randomization will be performed based on “Matched distribution” method/“Stratified” method (Study Director™ software, version 3.1.399.19)/randomized block design. The date of randomization will be denoted as day 0. […]
as §2, with “will be” for “were”
Tumor volumes will be measured twice per week after randomization in two dimensions using a caliper, and the volume will be expressed in mm^3 using the formula: “V=(L×W×W)/2, where V is tumor volume, L is tumor length (the longest tumor dimension) and W is tumor width (the longest tumor dimension perpendicular to L). […]
as §3

[4] = single agent, Compound 29 60 mg/kg p.o. BID, Oxaliplatin 5 mg/kg i.p. Q4D, Cabozantinib 10 mg/kg p.o. QD
[5] = Compound 29 60 mg/kg p.o. BID in combination with Cabozantinib 10 mg/kg p.o. QD (Group 6)
[6] = Compound 29 60 mg/kg p.o. BID in combination with Oxaliplatin 5 mg/kg i.p. Q4D (Group 5)

SMILES | T/C (%) [1, 4] [%] | TGI (%) [1, 4] [%] | Tumor Volume (mean ± SEM) [1, 4] [mm^3] | effect on tumor inhibition as compared to each of the agents as monotherapies [2] | T/C (%) [1, 5] [%] | TGI (%) [1, 5] [%] | Tumor Volume (mean ± SEM) [1, 5] [mm^3] | T/C (%) [1, 6] [%] | TGI (%) [1, 6] [%] | Tumor Volume (mean ± SEM) [1, 6] [mm^3] | effect on tumor inhibition as compared to each of the agents as monotherapies ([3]; Compound 29 60 mg/kg p.o. BID in combination with Doxorubicin 4 mg/kg i.v. Q4D, FIG. 2A, 2B) | effect on tumor inhibition as compared to each of the agents as monotherapies ([3]; Compound 29 60 mg/kg p.o. BID in combination with Gemcitabine 5 mg/kg i.p. Q3D, FIG. 3A, 3B) | effect on tumor inhibition as compared to each of the agents as monotherapies ([3]; Compound 29 60 mg/kg p.o. BID in combination with Paclitaxel 20 mg/kg i.p. QW, FIG. 4A, 4B)
COc1cc2nccc(Oc3ccc(NC(=O)C4(C(=O)Nc5ccc(F)cc5)CC4)cc3)c2cc1OC [Cabozantinib, reference compound] | 30.55 | 69.45 | 772.01 ± 100.44 |  |  |  |  |  |  |  |  |  | 
C[C@H]1CCCN(Cc2cc(C(F)(F)F)c3cn(-c4cccc(C5(Cc6nncn6C)COC5)c4)c(=O)n3c2)C1 [Compound 29] | 56.42 | 43.58 | 1425.65 ± 232.85 | improved effect on tumor inhibition | 25.45 | 74.55 | 643.08 ± 59.79 | 35.94 | 64.06 | 908.21 ± 76.22 | improved effect on tumor inhibition | improved effect on tumor inhibition | improved effect on tumor inhibition
O=C1[O][Pt]2([NH][C@@H]3CCCC[C@H]3[NH]2)[O]C1=O [Oxaliplatin, reference compound] | 103.27 | −3.27 | 2609.42 ± 203.84 |  |  |  |  |  |  |  |  |  | 
